This is an account of results in PMC2891903 (The Journal of nutritional biochemistry, 2010).

This experiment deals with T1, vitamin D receptor (VDR) (Homo sapiens, UniProt P11473).
T1 sequence (P11473 1-427): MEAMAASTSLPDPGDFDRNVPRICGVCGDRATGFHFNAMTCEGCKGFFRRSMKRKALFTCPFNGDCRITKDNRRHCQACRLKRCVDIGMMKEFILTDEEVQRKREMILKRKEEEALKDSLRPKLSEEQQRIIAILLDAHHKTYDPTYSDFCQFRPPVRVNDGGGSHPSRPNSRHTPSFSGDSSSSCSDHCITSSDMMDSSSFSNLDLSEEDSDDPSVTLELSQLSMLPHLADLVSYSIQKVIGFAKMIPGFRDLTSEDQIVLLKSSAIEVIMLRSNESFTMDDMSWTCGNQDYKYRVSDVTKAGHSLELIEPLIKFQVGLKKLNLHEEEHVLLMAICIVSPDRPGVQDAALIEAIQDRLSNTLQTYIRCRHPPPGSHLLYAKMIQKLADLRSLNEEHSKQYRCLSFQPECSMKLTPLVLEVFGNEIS
T1 sequence (P19793 1-462 partner): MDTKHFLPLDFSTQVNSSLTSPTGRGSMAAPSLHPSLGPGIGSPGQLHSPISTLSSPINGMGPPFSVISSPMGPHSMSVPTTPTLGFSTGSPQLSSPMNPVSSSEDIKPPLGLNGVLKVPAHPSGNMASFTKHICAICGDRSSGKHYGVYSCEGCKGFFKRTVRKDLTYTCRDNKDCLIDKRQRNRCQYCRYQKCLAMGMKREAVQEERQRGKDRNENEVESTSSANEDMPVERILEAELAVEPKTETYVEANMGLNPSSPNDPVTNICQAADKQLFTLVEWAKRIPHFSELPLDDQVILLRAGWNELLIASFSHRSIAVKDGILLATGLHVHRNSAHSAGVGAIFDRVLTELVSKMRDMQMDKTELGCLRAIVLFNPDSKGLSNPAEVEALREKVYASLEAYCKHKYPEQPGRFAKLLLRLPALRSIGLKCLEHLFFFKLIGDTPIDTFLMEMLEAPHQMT
In words: competitive displacement of [3H][…] from VDR in transfected COS-7 lysate. The experiment is classed as binding. For orientation: Loss of bound radioactivity is the signal in a displacement assay; it reports binding, not function.

A word on the Ki: it is a measure of affinity in units of concentration, obtained from inhibition or displacement. A higher Ki goes with lower affinity.

On to `COc1cc(/C=C/C(=O)CC(=O)/C=C/c2ccc(O)c(OC)c2)ccc1O` [CM, curcumin], for which the inhibition constant Ki worked out at 2.9 µM.
